Test results taken from ChEMBL document CHEMBL1135773, “Purine and pyrimidine (P2) receptors as drug targets” (J Med Chem, 2002).

Columns and labels:
P2Y purinoceptor 12 = P2Y purinoceptor 12 (Rattus norvegicus, UniProt Q9EPX4); test: Antagonist activity against phospholipase C coupled rat P2Y purinoceptor 12 (P2Y12); format: functional
P2X purinoceptor 5 = molecular target: T1, P2X purinoceptor 5 (Rattus norvegicus, UniProt P51578); test: Antagonist activity against recombinant rat P2X purinoceptor 5 (P2X5); format: functional
T1 sequence (P51578 whole entry): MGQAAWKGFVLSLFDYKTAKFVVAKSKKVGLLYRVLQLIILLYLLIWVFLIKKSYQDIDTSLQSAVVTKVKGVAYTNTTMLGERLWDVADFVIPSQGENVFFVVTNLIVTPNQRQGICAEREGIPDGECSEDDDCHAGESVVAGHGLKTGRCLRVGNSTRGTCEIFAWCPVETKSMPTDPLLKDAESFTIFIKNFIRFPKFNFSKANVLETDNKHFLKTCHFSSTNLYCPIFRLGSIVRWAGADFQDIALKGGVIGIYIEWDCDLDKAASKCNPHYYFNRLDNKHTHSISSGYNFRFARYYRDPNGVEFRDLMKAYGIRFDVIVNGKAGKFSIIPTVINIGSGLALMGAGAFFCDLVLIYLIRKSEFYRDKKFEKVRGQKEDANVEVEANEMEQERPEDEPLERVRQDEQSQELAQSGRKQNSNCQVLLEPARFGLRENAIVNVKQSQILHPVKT

P2Y purinoceptor 4 [1] = molecular target: P2Y purinoceptor 4 (Homo sapiens, UniProt P51582); test: The compound was evaluated for antagonist activity against phospholipase C coupled recombinant human P2Y purinoceptor 4 (P2Y4); format: functional
Sequence of P2Y purinoceptor 4 (Homo sapiens, UniProt P51582) (P51582 whole entry): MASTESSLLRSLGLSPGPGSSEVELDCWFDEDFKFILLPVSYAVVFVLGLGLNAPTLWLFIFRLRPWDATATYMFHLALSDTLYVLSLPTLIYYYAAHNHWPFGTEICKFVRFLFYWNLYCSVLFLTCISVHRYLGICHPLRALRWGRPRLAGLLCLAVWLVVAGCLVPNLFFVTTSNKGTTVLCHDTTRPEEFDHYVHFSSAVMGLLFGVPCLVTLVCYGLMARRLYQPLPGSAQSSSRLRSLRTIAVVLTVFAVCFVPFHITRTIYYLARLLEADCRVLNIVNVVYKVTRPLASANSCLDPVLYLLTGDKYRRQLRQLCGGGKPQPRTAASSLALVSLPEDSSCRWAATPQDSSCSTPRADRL

P2X purinoceptor 1 [2] = molecular target: T2, P2X purinoceptor 1 (Homo sapiens, UniProt P51575); test: Antagonist activity against recombinant human P2X purinoceptor 1 (P2X1 ); format: functional
T2 sequence (P51575 whole entry): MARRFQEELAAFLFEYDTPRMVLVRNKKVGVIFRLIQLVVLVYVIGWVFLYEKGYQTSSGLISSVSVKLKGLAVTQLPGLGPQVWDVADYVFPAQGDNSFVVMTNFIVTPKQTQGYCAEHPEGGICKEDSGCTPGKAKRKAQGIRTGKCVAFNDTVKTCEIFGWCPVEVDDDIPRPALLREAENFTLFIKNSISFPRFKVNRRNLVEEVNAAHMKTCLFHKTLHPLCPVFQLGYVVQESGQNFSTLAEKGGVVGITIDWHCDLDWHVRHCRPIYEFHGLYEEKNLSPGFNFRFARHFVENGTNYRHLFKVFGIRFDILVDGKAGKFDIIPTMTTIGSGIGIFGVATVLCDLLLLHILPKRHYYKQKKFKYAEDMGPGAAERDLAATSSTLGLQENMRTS

P2Y purinoceptor 4 [3] = molecular target: P2Y purinoceptor 4 (Rattus norvegicus, UniProt O35811); test: The compound was evaluated for agonist activity against phospholipase C coupled recombinant rat P2Y purinoceptor 4 (P2Y4); format: functional
Sequence of P2Y purinoceptor 4 (Rattus norvegicus, UniProt O35811) (O35811 whole entry): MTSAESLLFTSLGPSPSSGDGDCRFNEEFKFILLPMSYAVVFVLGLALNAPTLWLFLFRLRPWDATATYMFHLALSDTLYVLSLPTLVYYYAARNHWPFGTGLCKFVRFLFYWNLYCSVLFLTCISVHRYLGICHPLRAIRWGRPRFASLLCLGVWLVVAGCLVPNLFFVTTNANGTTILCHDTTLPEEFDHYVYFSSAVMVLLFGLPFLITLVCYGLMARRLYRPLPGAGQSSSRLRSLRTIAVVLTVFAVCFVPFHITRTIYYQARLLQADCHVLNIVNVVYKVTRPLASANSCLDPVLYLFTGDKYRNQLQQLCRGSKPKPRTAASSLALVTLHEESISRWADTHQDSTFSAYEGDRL

P2Y purinoceptor 6 [4] = molecular target: T3, P2Y purinoceptor 6 (Homo sapiens, UniProt Q15077); test: (§1) The compound was evaluated for agonist activity against phospholipase C coupled recombinant human P2Y purinoceptor 6 (P2Y6); format: functional
T3 sequence (Q15077 whole entry): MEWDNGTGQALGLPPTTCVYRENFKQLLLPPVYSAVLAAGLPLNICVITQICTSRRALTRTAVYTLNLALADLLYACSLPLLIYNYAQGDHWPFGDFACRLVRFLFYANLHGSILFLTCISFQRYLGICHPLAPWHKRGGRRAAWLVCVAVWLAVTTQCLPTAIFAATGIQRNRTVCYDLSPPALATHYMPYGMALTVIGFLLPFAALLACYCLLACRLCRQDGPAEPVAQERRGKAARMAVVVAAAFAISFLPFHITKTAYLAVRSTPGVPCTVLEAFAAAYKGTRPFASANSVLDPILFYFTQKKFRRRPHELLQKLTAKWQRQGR

P2Y purinoceptor 2 = P2Y purinoceptor 2 (Homo sapiens, UniProt P41231); test: Evaluated for agonist activity against phospholipase C coupled recombinant human P2Y purinoceptor 2 (P2Y2); format: functional
Sequence of P2Y purinoceptor 2 (P41231 whole entry): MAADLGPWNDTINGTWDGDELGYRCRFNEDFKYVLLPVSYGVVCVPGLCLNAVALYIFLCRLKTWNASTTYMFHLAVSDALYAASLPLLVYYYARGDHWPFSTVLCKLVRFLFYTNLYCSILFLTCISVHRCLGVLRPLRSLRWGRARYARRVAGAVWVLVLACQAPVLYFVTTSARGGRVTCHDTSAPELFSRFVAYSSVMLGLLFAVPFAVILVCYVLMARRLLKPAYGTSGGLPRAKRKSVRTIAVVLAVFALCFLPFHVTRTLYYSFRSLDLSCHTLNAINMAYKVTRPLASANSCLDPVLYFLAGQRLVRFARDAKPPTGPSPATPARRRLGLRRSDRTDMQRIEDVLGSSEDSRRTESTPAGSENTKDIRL

P2X purinoceptor 4 [5] = molecular target: T4, P2X purinoceptor 4 (Rattus norvegicus, UniProt P51577); test: Antagonist activity against recombinant rat P2X purinoceptor 4 (P2X4) at 30 uM, expressed in Xenopus oocytes; format: functional, cell-based, Oocyte
T4 sequence (P51577 whole entry): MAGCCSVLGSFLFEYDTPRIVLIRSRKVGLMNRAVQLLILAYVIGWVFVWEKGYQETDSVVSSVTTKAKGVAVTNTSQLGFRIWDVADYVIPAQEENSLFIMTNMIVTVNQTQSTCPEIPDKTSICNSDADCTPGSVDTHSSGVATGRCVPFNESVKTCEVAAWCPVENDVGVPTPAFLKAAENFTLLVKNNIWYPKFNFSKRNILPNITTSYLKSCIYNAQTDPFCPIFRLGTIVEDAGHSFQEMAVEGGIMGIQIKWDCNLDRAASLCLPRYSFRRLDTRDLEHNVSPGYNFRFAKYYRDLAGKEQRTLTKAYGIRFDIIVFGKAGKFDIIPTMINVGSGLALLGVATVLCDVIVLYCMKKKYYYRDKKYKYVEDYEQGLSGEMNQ

P2X purinoceptor 3 = molecular target: T5, P2X purinoceptor 3 (Homo sapiens, UniProt P56373); test: Antagonist activity against recombinant human P2X purinoceptor 3 (P2X3 ); format: functional
T5 sequence (P56373 whole entry): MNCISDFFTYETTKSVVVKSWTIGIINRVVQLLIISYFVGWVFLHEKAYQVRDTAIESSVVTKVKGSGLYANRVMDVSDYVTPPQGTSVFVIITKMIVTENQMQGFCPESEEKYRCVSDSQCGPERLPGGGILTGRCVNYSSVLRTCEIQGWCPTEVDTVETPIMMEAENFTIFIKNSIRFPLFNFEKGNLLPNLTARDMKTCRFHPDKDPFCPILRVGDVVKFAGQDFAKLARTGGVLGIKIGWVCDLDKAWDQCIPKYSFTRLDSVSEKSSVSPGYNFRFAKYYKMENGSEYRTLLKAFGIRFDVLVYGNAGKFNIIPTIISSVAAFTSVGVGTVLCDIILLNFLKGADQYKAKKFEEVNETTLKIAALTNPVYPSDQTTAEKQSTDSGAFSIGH

P2X purinoceptor 7 [6] = molecular target: T6, P2X purinoceptor 7 (Homo sapiens, UniProt Q99572); test: Antagonist activity against recombinant human P2X purinoceptor 7 (P2X7); format: functional
T6 sequence (Q99572 whole entry): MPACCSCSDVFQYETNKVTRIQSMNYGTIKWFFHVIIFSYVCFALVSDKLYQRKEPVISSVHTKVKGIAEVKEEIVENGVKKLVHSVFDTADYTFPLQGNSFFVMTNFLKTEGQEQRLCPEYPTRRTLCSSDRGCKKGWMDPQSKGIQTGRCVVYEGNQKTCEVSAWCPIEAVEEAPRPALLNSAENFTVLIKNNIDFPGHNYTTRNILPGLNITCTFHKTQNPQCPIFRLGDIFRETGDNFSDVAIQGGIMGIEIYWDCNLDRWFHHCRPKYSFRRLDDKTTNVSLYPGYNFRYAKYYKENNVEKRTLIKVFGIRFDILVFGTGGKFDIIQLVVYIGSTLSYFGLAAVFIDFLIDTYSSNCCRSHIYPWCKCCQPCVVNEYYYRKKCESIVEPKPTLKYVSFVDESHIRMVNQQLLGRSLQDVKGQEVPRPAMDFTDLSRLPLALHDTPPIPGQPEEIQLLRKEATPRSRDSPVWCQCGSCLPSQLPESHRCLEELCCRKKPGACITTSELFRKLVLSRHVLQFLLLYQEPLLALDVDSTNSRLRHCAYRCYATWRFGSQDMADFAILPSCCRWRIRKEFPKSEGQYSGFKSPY

P2X purinoceptor 4 [7] = molecular target: T7, P2X purinoceptor 4 (Homo sapiens, UniProt Q99571); test: Antagonist activity against recombinant human P2X purinoceptor 4 (P2X4); format: functional
T7 sequence (Q99571 whole entry): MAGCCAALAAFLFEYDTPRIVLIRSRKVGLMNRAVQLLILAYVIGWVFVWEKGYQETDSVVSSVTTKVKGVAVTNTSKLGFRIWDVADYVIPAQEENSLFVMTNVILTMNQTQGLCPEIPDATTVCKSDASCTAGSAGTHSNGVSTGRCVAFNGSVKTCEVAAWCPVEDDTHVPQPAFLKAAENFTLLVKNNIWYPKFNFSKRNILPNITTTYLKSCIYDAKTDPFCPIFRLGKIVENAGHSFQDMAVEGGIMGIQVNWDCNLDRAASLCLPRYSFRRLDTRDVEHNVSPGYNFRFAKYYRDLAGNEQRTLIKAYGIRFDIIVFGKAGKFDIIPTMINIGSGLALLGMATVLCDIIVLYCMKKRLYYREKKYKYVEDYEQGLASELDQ

P2X purinoceptor 6 = P2X purinoceptor 6 (Rattus norvegicus, UniProt P51579); test: Antagonist activity against recombinant rat P2X purinoceptor 6 (P2X6 ); format: functional
Sequence of P2X purinoceptor 6 (P51579 whole entry): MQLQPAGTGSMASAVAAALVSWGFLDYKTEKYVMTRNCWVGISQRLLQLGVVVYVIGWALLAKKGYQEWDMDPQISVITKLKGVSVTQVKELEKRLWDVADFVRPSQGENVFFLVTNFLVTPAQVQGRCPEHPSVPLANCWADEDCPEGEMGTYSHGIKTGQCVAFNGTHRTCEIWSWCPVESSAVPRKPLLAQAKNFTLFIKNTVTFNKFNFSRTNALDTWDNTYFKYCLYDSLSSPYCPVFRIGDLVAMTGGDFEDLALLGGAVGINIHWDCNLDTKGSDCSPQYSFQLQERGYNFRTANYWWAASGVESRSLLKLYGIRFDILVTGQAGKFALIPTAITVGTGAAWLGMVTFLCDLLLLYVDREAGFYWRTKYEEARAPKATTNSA

P2X purinoceptor 2 [8] = molecular target: T8, P2X purinoceptor 2 (Rattus norvegicus, UniProt P49653); test: Antagonist activity against recombinant rat receptor P2X purinoceptor 2 (P2X2) at 10 uM, expressed in Xenopus oocytes; format: functional, cell-based, Oocyte
T8 sequence (P49653 whole entry): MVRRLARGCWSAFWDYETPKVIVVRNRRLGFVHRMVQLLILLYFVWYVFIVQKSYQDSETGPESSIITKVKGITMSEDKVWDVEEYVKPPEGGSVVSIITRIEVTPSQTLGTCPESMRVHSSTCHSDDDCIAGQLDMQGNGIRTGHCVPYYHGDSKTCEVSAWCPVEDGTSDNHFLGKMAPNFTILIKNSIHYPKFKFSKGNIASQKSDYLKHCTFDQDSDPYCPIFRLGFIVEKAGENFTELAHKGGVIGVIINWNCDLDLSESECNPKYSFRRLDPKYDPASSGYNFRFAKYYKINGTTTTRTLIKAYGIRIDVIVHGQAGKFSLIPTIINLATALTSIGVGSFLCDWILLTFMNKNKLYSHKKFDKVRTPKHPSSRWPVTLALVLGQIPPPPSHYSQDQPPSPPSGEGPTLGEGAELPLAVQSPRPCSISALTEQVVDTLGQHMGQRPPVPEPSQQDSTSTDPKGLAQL

[9] = molecular target: P2Y purinoceptor 1 (Rattus norvegicus) (UniProt P49651); test: Evaluated for agonist activity against phospholipase C coupled P2Y purinoceptor 1 (P2Y1) of rat erythrocytes
Sequence of P2Y purinoceptor 1 (Rattus norvegicus) (P49651 whole entry, looked up): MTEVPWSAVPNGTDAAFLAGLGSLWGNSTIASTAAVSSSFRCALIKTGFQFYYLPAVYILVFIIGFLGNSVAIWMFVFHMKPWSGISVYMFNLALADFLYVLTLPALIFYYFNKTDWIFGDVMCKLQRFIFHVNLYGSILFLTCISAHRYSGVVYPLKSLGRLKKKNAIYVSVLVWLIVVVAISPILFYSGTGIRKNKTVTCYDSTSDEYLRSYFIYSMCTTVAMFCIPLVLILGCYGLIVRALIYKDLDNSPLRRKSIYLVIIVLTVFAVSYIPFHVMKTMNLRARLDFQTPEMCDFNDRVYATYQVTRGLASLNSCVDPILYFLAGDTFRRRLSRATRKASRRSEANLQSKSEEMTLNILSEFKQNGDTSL

P2X purinoceptor 2 [10] = molecular target: T8, P2X purinoceptor 2; test: The compound was evaluated for antagonist activity against recombinant rat receptor P2X purinoceptor 2 (P2X2) at 30 uM, expressed in Xenopus oocytes; format: functional, cell-based, Oocyte
P2X purinoceptor 1 [11] = molecular target: T9, P2X purinoceptor 1 (Rattus norvegicus, UniProt P47824); test: The compound was evaluated for antagonist activity against recombinant rat P2X purinoceptor 1 (P2X1) at 1 uM, expressed in Xenopus oocytes; format: functional, cell-based, Oocyte
T9 sequence (P47824 whole entry): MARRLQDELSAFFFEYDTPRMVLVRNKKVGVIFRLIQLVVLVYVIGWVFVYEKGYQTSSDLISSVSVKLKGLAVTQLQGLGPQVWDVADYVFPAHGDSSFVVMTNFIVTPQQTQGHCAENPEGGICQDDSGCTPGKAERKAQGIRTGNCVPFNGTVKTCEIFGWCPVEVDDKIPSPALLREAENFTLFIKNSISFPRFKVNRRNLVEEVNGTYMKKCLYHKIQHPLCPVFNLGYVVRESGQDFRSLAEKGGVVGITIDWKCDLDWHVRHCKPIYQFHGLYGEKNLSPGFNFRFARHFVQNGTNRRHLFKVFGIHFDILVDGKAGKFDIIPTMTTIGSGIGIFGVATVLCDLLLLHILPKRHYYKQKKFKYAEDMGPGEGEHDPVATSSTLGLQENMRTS

P2Y purinoceptor 6 [12] = molecular target: T3, P2Y purinoceptor 6; test: as §1; format: functional; settings: concentration not given here
P2Y purinoceptor 1 [13] = molecular target: P2Y purinoceptor 1 (Homo sapiens, UniProt P47900); test: Evaluated for agonist activity against phospholipase C coupled P2Y purinoceptor 1 (P2Y1) of human erythrocytes; format: functional
Sequence of P2Y purinoceptor 1 (Homo sapiens, UniProt P47900) (P47900 whole entry): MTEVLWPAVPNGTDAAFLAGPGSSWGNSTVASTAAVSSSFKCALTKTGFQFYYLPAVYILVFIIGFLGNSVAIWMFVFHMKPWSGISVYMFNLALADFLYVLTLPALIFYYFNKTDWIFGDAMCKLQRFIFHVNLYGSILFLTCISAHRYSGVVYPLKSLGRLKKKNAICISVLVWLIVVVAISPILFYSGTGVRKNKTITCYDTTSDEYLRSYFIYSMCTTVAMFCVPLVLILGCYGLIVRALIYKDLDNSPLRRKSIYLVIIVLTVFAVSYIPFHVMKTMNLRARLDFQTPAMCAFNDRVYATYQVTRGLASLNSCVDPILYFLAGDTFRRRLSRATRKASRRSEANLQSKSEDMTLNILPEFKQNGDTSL

P2X purinoceptor 7 [14] = molecular target: P2X purinoceptor 7 (Rattus norvegicus, UniProt Q64663); test: The compound was evaluated for antagonist activity against recombinant rat P2X purinoceptor 7 (P2X7); format: functional
Sequence of P2X purinoceptor 7 (Rattus norvegicus, UniProt Q64663) (Q64663 whole entry): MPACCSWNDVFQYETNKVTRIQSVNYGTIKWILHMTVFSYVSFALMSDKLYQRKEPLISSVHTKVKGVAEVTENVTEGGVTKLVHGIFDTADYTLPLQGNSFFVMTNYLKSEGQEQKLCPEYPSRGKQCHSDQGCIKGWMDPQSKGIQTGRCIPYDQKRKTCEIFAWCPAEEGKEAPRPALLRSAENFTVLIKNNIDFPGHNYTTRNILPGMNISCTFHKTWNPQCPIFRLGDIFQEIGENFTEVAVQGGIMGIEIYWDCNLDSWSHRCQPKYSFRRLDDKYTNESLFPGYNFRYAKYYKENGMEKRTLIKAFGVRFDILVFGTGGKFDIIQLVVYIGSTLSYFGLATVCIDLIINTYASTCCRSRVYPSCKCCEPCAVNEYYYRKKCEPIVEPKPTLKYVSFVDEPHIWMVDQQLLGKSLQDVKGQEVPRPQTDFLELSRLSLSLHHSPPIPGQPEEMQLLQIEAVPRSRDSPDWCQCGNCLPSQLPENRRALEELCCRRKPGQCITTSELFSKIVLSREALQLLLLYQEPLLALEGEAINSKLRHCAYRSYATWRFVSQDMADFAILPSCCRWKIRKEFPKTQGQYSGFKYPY

P2X purinoceptor 4 [15] = molecular target: T4, P2X purinoceptor 4; test: Antagonist activity against recombinant rat P2X purinoceptor 4 (P2X4) at 3 uM, expressed in Xenopus oocytes; format: functional, cell-based, Oocyte
P2Y purinoceptor 1 [16] = molecular target: P2Y purinoceptor 1 (Meleagris gallopavo, UniProt P49652); test: Evaluated for agonist activity against phospholipase C coupled P2Y purinoceptor 1 (P2Y1) of turkey erythrocytes; format: functional
Sequence of P2Y purinoceptor 1 (Meleagris gallopavo, UniProt P49652) (P49652 whole entry): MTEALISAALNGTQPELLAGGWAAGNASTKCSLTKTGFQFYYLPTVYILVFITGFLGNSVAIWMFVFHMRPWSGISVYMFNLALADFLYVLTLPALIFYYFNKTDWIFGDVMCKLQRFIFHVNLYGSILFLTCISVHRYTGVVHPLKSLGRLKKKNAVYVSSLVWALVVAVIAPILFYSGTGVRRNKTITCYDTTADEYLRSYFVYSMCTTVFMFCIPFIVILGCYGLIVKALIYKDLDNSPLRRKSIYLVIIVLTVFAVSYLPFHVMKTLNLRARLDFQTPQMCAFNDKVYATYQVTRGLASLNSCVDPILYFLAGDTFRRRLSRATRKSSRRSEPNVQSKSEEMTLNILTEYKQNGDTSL

P2X purinoceptor 2 [17] = molecular target: T8, P2X purinoceptor 2; test: The compound was evaluated for antagonist activity against recombinant rat receptor P2X purinoceptor 2 (P2X2) at 10 uM, expressed in Xenopus oocytes; format: functional, cell-based, Oocyte

Sequence of P2Y purinoceptor 12 (Q9EPX4 whole entry): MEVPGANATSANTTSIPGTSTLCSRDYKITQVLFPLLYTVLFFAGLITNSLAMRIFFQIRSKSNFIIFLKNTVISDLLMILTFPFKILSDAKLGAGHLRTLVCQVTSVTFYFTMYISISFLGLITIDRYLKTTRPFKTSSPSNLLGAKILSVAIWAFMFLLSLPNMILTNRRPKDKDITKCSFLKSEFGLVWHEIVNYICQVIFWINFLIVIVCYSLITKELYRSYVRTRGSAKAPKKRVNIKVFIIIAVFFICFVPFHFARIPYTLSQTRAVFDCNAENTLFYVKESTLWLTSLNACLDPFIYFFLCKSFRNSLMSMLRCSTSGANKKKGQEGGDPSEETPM

What does the source list for `Nc1ncnc2c1ncn2[C@@H]1O[C@H](COP(=O)(O)OP(=O)(O)OP(=O)(O)O)[C@@H](O)[C@H]1O` [ADENOSINE TRIPHOSPHATE]?
EC50 (P2Y purinoceptor 12): 3190 nM; EC50 (P2X purinoceptor 5): 1000 nM; EC50 (P2Y purinoceptor 4 [1]): 43000 nM; EC50 (P2X purinoceptor 1 [2]): 56 nM; EC50 (P2Y purinoceptor 4 [3]): 1800 nM; EC50 (P2Y purinoceptor 6 [4]): > 100000 nM; EC50 (P2Y purinoceptor 2): 230 nM; EC50 (P2X purinoceptor 4 [5]): 1000 nM; EC50 (P2X purinoceptor 3): 340 nM; EC50 (P2X purinoceptor 7 [6]): 780000 nM; EC50 (P2X purinoceptor 4 [7]): 500 nM; EC50 (P2X purinoceptor 6): 1000 nM; EC50 (P2X purinoceptor 2 [8]): 1400 nM

Which EC50 [9] does the source give for `Cc1nc(/N=N/c2ccc(S(=O)(=O)O)cc2S(=O)(=O)O)c(COP(=O)(O)O)c(C=O)c1O` here?
Its EC50 is 18200 nM.

And the EC50 (P2Y purinoceptor 12)?
Its EC50 is greater than 100000 nM.

What about the EC50 (P2X purinoceptor 5) of the same compound?
Its EC50 is 2600 nM.

What about the EC50 (P2Y purinoceptor 4 [1]) of the same compound?
The EC50 was greater than 10000 nM.

And the EC50 (P2X purinoceptor 2 [10])?
Its EC50 is 12000 nM.

What about the EC50 (P2X purinoceptor 1 [11]) of the same compound?
The EC50 was 99 nM.

And the EC50 (P2Y purinoceptor 2)?
The EC50 was greater than 10000 nM.

And the inhibition (P2Y purinoceptor 6 [12])?
The inhibition was 69%.

What about the EC50 (P2Y purinoceptor 1 [13]) of the same compound?
Its EC50 is 1000 nM.

And the EC50 (P2X purinoceptor 6)?
The EC50 was greater than 100000 nM.

And the EC50 (P2X purinoceptor 7 [14])?
Its EC50 is 62000 nM.

And the EC50 (P2X purinoceptor 4 [15])?
Its EC50 is greater than 10000 nM.

Which results are given for `Cc1nc(/N=N/c2cc(S(=O)(=O)O)ccc2Cl)c(COP(=O)(O)O)c(C=O)c1O`?
EC50 (P2Y purinoceptor 1 [16]): 4.4 nM; EC50 (P2X purinoceptor 2 [17]): 1.1 nM
